These results are taken from patent publication US20190358238A1, “ALLOSTERIC ANTAGONISTS OF GPRC6a AND THEIR USE IN MITIGATING PROTEINOPATHIES” (UNIVERSITY OF SOUTH FLORIDA, priority 2016, published 2019).

“Also recorded” adds a separate entry of the source.

Data set [1] has as its system C3H/htau cells. Briefly: tau expression in C3H/htau cells treated 72 hours, samples run on a gel. The format is cell-based. The settings on record: for monomeric and high molecular weight (HMW) tau multimers: 72 hours. As to the method: (§1) FIG. 3A, FIG. 3B, FIG. 3C, FIG. 3D. C3H/htau cells treated with siRNA to GPRC6A show decreased tau expression compared to scrambled siRNA (FIG. 3A). GPRC6a allosteric antagonist Cpd#3 (Drug 47661) (0-250 tLM) decreases monomeric and high molecular weight (HMW) tau multimers (FIG. 3B) in C3H/htau cells. FIG. 3C-FIG. 3D show decreased tau in primary neurons after (Drug 47661) decreases tau at 10-100 nM. All treatments=72 hours (n=3 independent exp.).
FIG. 6. C3H/htau cells treated with GPRC6A antagonist show decreased tau expression compared to vehicle (dotted line and first lane in each well). All GPRC6a allosteric antagonists Drug 47661 (red), PF020 (blue), PF037 (black) (0-100 μM) decreased monomeric and high molecular weight (HMW) tau multimers in C3H/htau cells at different concentrations. All treatments=72 hours (n=3 independent exp.).
rTg4510 tau mice comprise of the tau P301L mutation which expresses in the forebrain and hippocampus (K. Santacruz, et al. Science 2005, 309, 476). […] Accumulation of ptau occurs largely between 3 and 9 mo of age. Additionally, high-molecular weight tau multimers/oligomers and nitrated tau also accumulate in rTg4510 tau transgenic mice compared to non-transgenic littermates (J. B. Hunt, Jr., et al. J. Neurosci. 2015, 35, 14842). […] In stably tau overexpressing HeLa cells (C3H/htau), siRNA to GPRC6a reduced receptor expression coupled with a reduction in tau […]. We will repress GPRC6a expression in the CNS with rAAV-shRNA-GPRC6a to reduce receptor signaling.
(§2) Some of the compounds have 9-fold more selectivity for GPRC6a than our current compound in a FRET-based assay (H. Johansson, et al. J. Med. Chem. 2015, 58, 8938), and an excess of 50 derivatives to these current lead compounds will be analyzed. A tetracycline inducible “on” tau fusion-Dendra2 stable cell line will be used, which is a green-to-red irreversible photoswitchable fluorescent protein activated by UV-violet/blue light. We will induce tau expression with tetracycline (1 μg/mL) for 24 h, then photo convert tau dendra2-green with blue light (488 nm) for 10 minutes to tau-dendra2-red for monitoring kinetics of tau. […] We will treat cells with GPRC6a allosteric antagonists for 72 hours with continual red fluorescent output readings every 6 hours (553 nm ex and 573 nm em). This assay will measure tau degradation kinetics over time (time 0 point at which photo switch occurs from tau-green to tau-red) (FIG. 5). Agents that govern tau biology will alter the rate of tau degradation (tau-red). Newly synthesize tau (tau-green) will fluoresce green to be measure on a separated channel. We will also co-label cells with DAPI nuclear stain to account for cell loss and nuclear chromatin changes. We will use Biotek®@ Cytation™ 3 Cell Imaging Multi-Mode Reader located at Byrd Institute. We will use a 96 well semi-high throughput platform with GPRC6a antagonist concentrations ranging from (10 nM-100 μM). We will also perform cell toxicity assays (Cyto Tox-ONE LDH Membrane Integrity Assay, Promega). We will perform western blot analysis in C3H/htau cells from GPRC6a antagonists that reduce tau levels more than 30% at 3 μM or below and with no more than 5-10% toxicity. We will measure autophagy related makers to determine the mechanism for tau reduction.
C3H/htau cells were treated for 72 hours with varying concentrations of GPRC6A antagonist Drug 47661, PF020, or PF037. Samples were run on a gel. […]

Data set [2] concerns primary neurons. Kind of data set: tau in primary neurons after 72 hours treatment. The settings on record: 10-100 nM, endogenous tau, nanomolar efficacy. In kind it is cell-based. The protocol:
as §1
Some of the compounds have 9-fold more selectivity for GPRC6a than our current compound in a FRET-based assay (H. Johansson, et al. J. Med. Chem. 2015, 58, 8938), and an excess of 50 derivatives to these current lead compounds will be analyzed. A tetracycline inducible “on” tau fusion-Dendra2 stable cell line will be used, which is a green-to-red irreversible photoswitchable fluorescent protein activated by UV-violet/blue light. We will induce tau expression with tetracycline (1 μg/mL) for 24 h, then photo convert tau dendra2-green with blue light (488 nm) for 10 minutes to tau-dendra2-red for monitoring kinetics of tau. […] We will treat cells with GPRC6a allosteric antagonists for 72 hours with continual red fluorescent output readings every 6 hours (553 nm ex and 573 nm em). […] We will use Biotek®@ Cytation™ 3 Cell Imaging Multi-Mode Reader located at Byrd Institute. […]

For data set [3], the system named is PS 19 tau (P301S) transgenic mice. Briefly: acute bolus injection into PS19 tau (P301S) transgenic mice, western blot after 72 hours. The format is in vivo, mouse. As to the method: FIG. 4. GPRC6a allosteric antagonist impacts tau levels and modifies autophagy markers in PS 19 tau transgenic mice. PSI9 (P301S) mice (bottom left of panel) show tau AT8 accumulation received an acute bolus injection of vehicle on one hemisphere and the antagonist (Drug 47661, 78 ng) on the opposite hemisphere for 72 hours.
as §2

Data set [4] in a line: half-life of Drug 47661 in naive mice after IV injection. The format is in vivo, mouse. As to the method:
FIG. 9. Graphs show relative half-life of Drug 47661. Naïve mice were injected with 5 mg/kg of Drug 47661 IV. Serial submandibular bleeds were taken 15 min and 60 min post IV injection. […] (N=3).
The half-life of GPRC6A antagonist Drug 47661 was examined. Naïve mice were injected with 5 mg/kg of Drug 47661 by IV. Serial submandibular bleeds were taken 15 min and 60 min post IV injection. […] (N=3). Shown in FIG. 9 is a graph showing the relative half-life of Drug 47661.

The test system of data set [5] is BE(2) M17 cells. Briefly: alpha synuclein expression in BE(2) M17 cells stably transfected with wild-type alpha synuclein. The format is cell-based. The settings on record: 72 hours, relative to GAPDH. The protocol: FIG. 10. Shown are BE(2) M17 cells stably transfected with wild-type alpha synuclein (16 kDa) treated with GPRC6a antagonist drug 47661 for 72 hours. […] Statistical analysis was performed using One-way Anova with Fisher's LSD multiple comparison test as post hoc. (n=3 independent experiments).
BE(2) M17 cells were stably transfected with wild-type alpha synuclein (16 kDa) and treated with GPRC6a antagonist drug 47661 for 72 hours. Samples were run on a gel. […] Statistical analysis was performed using One-way Anova with Fisher's LSD multiple comparison test as post hoc.

[6] abbreviates: 78 ng bolus injection, western blot.

In the case of `CN(CCN1CCOCC1)CC(=O)c1c(-c2ccccc2)[nH]c2ccccc12` [PF037], in data set [1] (0-100 μM, vs vehicle, FIG. 6), the “monomeric and high molecular weight (HMW) tau multimers” value (shortened to “monomeric and high molecular weight”) was “decreased”.

On to `CN(CC(=O)c1c(-c2ccccc2)[nH]c2ccccc12)CC(=O)N1CCOCC1` [Drug 47661, 2-(methyl(2-morpholino-2-oxoethyl)amino)-1-(2-phenyl-1H-indol-3-yl)ethan-1-one], for which the “monomeric and high molecular weight” value in data set [1] (0-100 μM, vs vehicle, FIG. 6) is “decreased”. In data set [1] (0-250 tLM, FIG. 3B), the “monomeric and high molecular weight” value is given as “decreases”. Further, the “clearance among monomeric, insoluble, and oligomeric tau” value in data set [1] (micromolar efficacy) is listed as “significant clearance”. For the same compound, in data set [2], the “tau in primary neurons” value is “reduced; also recorded: decreased tau”. Moreover, in data set [3] (setting [6]), the “beclin 1” value is “increased”, the mTOR result is given as “decreased” and the p62 entry is listed as “decreased”. In data set [3] (78 ng one-time bolus injection, entorhinal cortex, vs vehicle hemisphere), the “tau expression (total tau)” value is on record as “modestly reduced”. In data set [4] (5 mg/kg IV (FIG. 9 legend)), the clearance rate was 4.5 Lh/kg. In addition, the half-life (usually the time in which the quantity being followed falls by half) in data set [4] (mouse, blood, 5 mg/kg IV) was 9.6 min. Also, the clearance (usually the rate of elimination divided by the concentration) in data set [4] (mouse, blood, 5 mg/kg IV, read-out: clearance rate (converted)) is 75 mL/min/kg. In addition, in data set [4] (mouse, blood, 5 mg/kg IV, read-out: volume of distribution), the Vd turned out to be 1.07 L/kg. Moreover, the “monomeric (16 kDa) and oligomeric (>75 kDa) alpha synuclein expression” value in data set [5] is “decreased”.

Consider `O=C(CN1CCCC(C(=O)N2CCOCC2)C1)c1c(-c2ccccc2)[nH]c2ccccc12` (stereo not drawn) [PF020, 2-(3-(morpholine-4-carbonyl)piperidin-1-yl)-1-(2-phenyl-1H-indol-3-yl)ethan-1-one], for which the “monomeric and high molecular weight” value in data set [1] (0-100 μM, vs vehicle, FIG. 6) is on record as “decreased”.
